# Measurements taken from patent US7919475B2, “Compositions and methods for improving heart function” (The Regents of The University of California, priority 2004, dated 2011).
# Tests used:
# [1] = system: nuclear O-GlcNAcylation; experiment: Nuclear O-GlcNAcylation by Western immunoblot (antibody 110.6) in neonatal cardiomyocytes; format: cell-based, rat; details: 72 hours; 25 mM glucose; 5.5 mM glucose with 8 mM glucosamine or 50 μM PUGNAc; 25 mM glucose with adenovirus MOI 25
# Method: Samples of each extract (25-50 μg) were fractionated by SDS-PAGE on precast 4-20% Tris-glycine gels (BioRad) and transferred to nylon membranes. Membranes were blocked overnight, exposed to the O-GlcNAc-specific antibody 110.6 (17) (1:10,000) overnight at 4° C., then exposed for 1 hour to 1:5,000 goat anti-mouse IgM-HRP. Alternatively, membranes were exposed to anti-MEF-2 (1:200) for one hour at RT followed by a one hour exposure to 1:10,000 goat anti-rabbit IgG-HRP. Visualization and quantification was as described above.
# Cells were cultured for 72 hours in 5.5 mM glucose (NG) or 25 mM glucose (HG) and supplemented with one of the following: 8 mM glucosamine (NG/GlcN), 50 μM PUGNAc, or adenovirus encoding either OGT or GCA. Adenoviruses were applied at an MOI=25. Nuclear extracts (50 μg) were prepared according to the methods outlines in “Experimental Procedures”, resolved on 4-20% gradient SDS-tricine gels, transferred to nylon membranes and immunoblotted with a monoclonal anti-O-GlcNAc antibody 110.6.
# [2] = system: neonatal rat cardiomyocytes; experiment: Indo-1 [Ca2+]i transients in cultured neonatal cardiomyocytes; format: cell-based; details: for time to achieve a 50% decrease in the calcium transient (T1/2): 5.5 mM glucose supplemented with 8 mM glucosamine or 50 μM PUGNAc, 72 hours; for increase in diastolic calcium decay relative to controls: 5.5 mM glucose with 8 mM glucosamine or 50 μM PUGNAc
# Method: (§1) Cardiomyocyte Isolation and Culture. Primary cultures of neonatal rat cardiomyocytes were prepared as described previously, see, e.g., Hartong (1996) J. Mol. Cell. Cardiol. 28:2467-2477. Cells were plated onto gelatin-coated culture dishes or laminin-coated glass chamber slides. Plating medium consisted of 4.25:1 DMEM:M199, 10% horse serum, 5% fetal bovine serum, 1% penicillin/streptomycin/fungizone (PSF), and 5.5 mM D-glucose. Cells were allowed to adhere to the plates for 24 hours before changing to basic experimental culture medium (4.5:1 DMEM:M199, 2% fetal bovine serum, 1% PSF, and 100 μM insulin) and supplemented with glucose at either physiological (5.5 mM; normal glucose) or elevated (25 mM; high glucose) concentrations. For some experiments, media was supplemented with 8 mM glucosamine, 40 μM aminoguanidine, 0.5 μg/ml tunicamycin, 50 μM PUGNAc or an osmotic control (20 mM mannitol). In cases where cells were plated at exceptionally high density (5×10^6 per 100 mm plate), the culture medium was changed daily until the cells were harvested.
# Construction of adenoviral vectors. The rat cDNA corresponding to the UDP-N-acetylglucosamine:peptide N-acetylglucosaminyl transferase gene (O-GlcNAc transferase; OGT), which encodes the enzyme responsible for the O-linkage of single N-acetylglucosamine molecules to serine/threonine residues (19), and the human cDNA encoding the O-GlcNAcase gene (GCA), the enzyme responsible for removing O-linked N-acetylglucosamine residues (see, e.g., Haltiwanger (1992) J. Biol. Chem. 267:9005-9013). Each cDNA was inserted into the E1 region of an adenoviral vector construct using previously described methods (see, e.g., Gao (2001) J. Biol. Chem. 276:9838-9845). Replication-deficient adenovirus particles containing the target gene or empty vector (SR−) were generated by in vivo recombination in 293 cells and single plaques were isolated and propagated to achieve high titer. Adenoviral particles were CsCl-purified and quantified by plaque titer assay. Myocytes were infected with a multiplicity of infection (MOI) of 25 for all viruses.
# Measurement of [Ca^2+]I transients. Indo-1 facilitated measurement of Ca^2+ transients has been described previously, see, e.g., He (1997) J. Clin. Invest 100:380-389). […] Cells were rinsed and incubated for 20 min at RT in appropriate serum-free culture medium containing 1.8 mM CaCl2 prior to making fluorescence measurements to allow for deesterification of the Indo-1/AM. […] Transients were measured from at least 18 cells per slide per treatment. […]
# Calcium transients. To determine whether elevated extracellular glucose and increased O-GlcNAcylation would exert an effect on intracellular calcium flux, Indo-1 calcium transients were determined in neonatal rat cardiomyocytes. […]
# [3] = system: CB6F1 mice; experiment: Blood glucose and cardiac UDP-sugar nucleotides in streptozocin-injected mice; format: in vivo, mouse; details: streptozocin 150 mg/kg intraperitoneal, three weeks
# Method: Animals and Determination of Cardiac Sugar Nucleotides. Male CB6F1 mice weighing 20-25 g (Charles River, Wilmington, Mass.) were made diabetic using methods described previously, see, e.g., Trost (2002) supra. Briefly, diabetes was induced with a single intraperitoneal injection of streptozocin (150 mg/kg in citrate saline, pH 4.5) to animals fasted overnight (16 hrs). Diabetic animals were sacrificed three weeks following injection. To determine the degree of diabetes, blood was drawn via direct cardiac puncture in CO2-euthanized animals and plasma glucose concentration was determined using the Sigma Glucose Kit (510-A).
# Sugar nucleotides were extracted from fresh ventricles and quantified by HPLC as described by Weckbecker (1983) Anal. Biochem. 132:405-412. Hearts were homogenized in 3 vols of ice-cold 0.3 M HClO4 and debris pelleted at 10,000×g for 15 min at 4° C. Two vols of 1:4 trioctylamine: 1,1,2-trichlorotrifluoroethane (Freon) were added to the supernatant, followed by vortexing for 30 sec and centrifuging at 1000×g for 5 min at 4° C. The aqueous phase was carefully transferred to a fresh tube and frozen at −80° C. until assayed. Samples were diluted in 0.5 ml H2O and desalted on a Mono-Q column (flow rate 1 ml/min). The combined UDP-GlcNAc/GalNAc fraction was collected as a peak at 23 minutes and the sample was lyophilized overnight. Dried samples were subsequently dissolved in borate solution (0.22 M boric acid, 0.09 M disodium tetraborate, and 1.2 M glycerol, pH 6.85), and separated into distinct UDP-GlcNAc and UDP-GalNAc peaks on a Partisil SAX-10 column. […]
# Effects of STZ-induced diabetes on UDP-nucleotide levels. […] Blood was drawn via direct cardiac puncture and plasma [glucose] was subsequently determined using a Sigma Glucose kit. Sugar nucleotides were extracted immediately from hearts and quantitated using HPLC as described in “Experimental Procedures” above. […] Fractions were quantified by comparing total peak area with results from known concentrations of each sugar nucleotide.
# [4] = system: SERCA2a; experiment: SERCA2a protein level by Western immunoblot in neonatal cardiomyocytes; format: cell-based, rat; details: for influence on SERCA2a protein levels: 40 μM aminoguanidine or 0.5 μg/ml tunicamycin, regardless of glucose concentration
# Method: as §1
# Western Immunoblotting. To determine SERCA2a protein levels, myocytes (1×10^6) were washed with phosphate buffered saline (PBS), then extracted with 0.2 ml lysis buffer (20 mM Tris, pH 7.4, 20 mM NaCl, 0.1 mM EDTA, 1% Triton X-100, 0.5% Na-deoxycholate, 1 mM dithiothreitol). Lysates were incubated on ice for 30 min, and cellular debris was pelleted at 10,000×g for 20 min at 4° C. Protein concentration in the supernatant was determined by BioRad protein reagent. 30 μg of protein diluted in extraction buffer and 4× Laemmli sample buffer were loaded without boiling onto pre-cast 4-20% Tris-glycine gels. Separated proteins were transferred to nylon membranes using a Bio-Rad Mini Trans-Blot apparatus and blocked overnight at 4° C. Blots were incubated with a rabbit polyclonal SERCA2a antibody (see, e.g., Hartong (1996) supra) (1:5000) for 1 hour at RT, followed by a 1 hour incubation with a 1:5000 dilution of goat anti-rabbit IgG-HRP conjugated secondary antibody (Amersham). Bands were visualized by reacting with chemiluminescent substrate (NEN) and exposed to film. Protein bands were quantified from scanned images using Scion imaging software (Scion, Frederick, Md.).
# SERCA2a in RNA, protein expression and promoter activity. […] FIG. 2 illustrates Northern and western blots of neonatal cardiomyocytes. (FIG. 2A) Results of a northern blot for SERCA2a mRNA in neonatal cardiomyocytes cultured for 72 hours with 5.5 mM (NG) or 25 mM (HG) glucose. Total RNA (15 μg) isolated from cultured myocytes was resolved using a denaturing agarose gel, transferred to a nylon membrane and probed with a full length ^32P-labeled probe corresponding to rat SERCA2a as described in “Experimental Procedures”. (FIG. 2B) Western immunoblot analysis of SERCA2a protein levels from neonatal cardiomyocytes exposed to 5.5 mM or 25 mM glucose in the presence and absence of 40 μM aminoguanidine (AG), 0.5 μg/ml tunicamycin (Tun), or 8 mM glucosamine (GlcN, 5.5 mM glucose group only). Crude lysates (30 μg) were resolved using 4-20% gradient SDS-PAGE gels, transferred to nylon membranes, and immunoblotted with a SERCA2a polyclonal antibody as described in “Experimental Procedures”. […] (C) SERCA2a protein levels based on Western immunoblots from adenovirus-infected neonatal cardiomyocytes.
# [5] = system: MEF-2a; experiment: MEF-2a protein level by immunoblot of nuclear extracts of neonatal cardiomyocytes; format: cell-based, rat; details: 25 mM glucose; 5.5 mM glucose with 8 mM glucosamine; 25 mM glucose with adeno-OGT MOI 25
# Method: To examine cellular O-GlcNAcylation and MEF-2a levels, nuclear extracts were prepared from neonatal cardiomyocytes (2×10^6) using modifications of the procedures described by Dignam (1983) Nucleic Acids Res. 11:1475-1489. Samples of each extract (25-50 μg) were fractionated by SDS-PAGE on precast 4-20% Tris-glycine gels (BioRad) and transferred to nylon membranes. Membranes were blocked overnight, exposed to the O-GlcNAc-specific antibody 110.6 (17) (1:10,000) overnight at 4° C., then exposed for 1 hour to 1:5,000 goat anti-mouse IgM-HRP. Alternatively, membranes were exposed to anti-MEF-2 (1:200) for one hour at RT followed by a one hour exposure to 1:10,000 goat anti-rabbit IgG-HRP. Visualization and quantification was as described above.
# Nuclear extracts (50 μg) were prepared as described in “Experimental Procedures” above, resolved on 10% SDS-PAGE gels, transferred to nylon membranes and immunoblotted with anti-MEF2 antibody (Santa Cruz Biotech).
# [6] = system: rat SERCA2a promoter; experiment: SERCA2a promoter luciferase assay in neonatal cardiomyocytes; format: cell-based; details: 5.5 mM glucose/8 mM glucosamine
# Method: Transfections and SERCA2a Promoter Luciferase Assays. DNA transfection of neonatal cardiomyocytes was performed using the calcium phosphate-DNA co-precipitation method, see, e.g., Chen (1987) Mol. Cell. Biol 7:2745-2752. Cells (0.5×10^6) were transfected overnight in appropriate culture medium (either NG- or HG-containing medium) with 50 ng of either a 0.6 kb fragment of the rat SERCA2a promoter (corresponding to the 600 bases immediately upstream of the transcriptional start codon) (see, e.g., Rohrer (1991) J. Biol. Chem. 266:8638-8646) or a control plasmid (pGL3; Promega) and 3 μg of fill plasmid (pBS; Stratagene), then washed with PBS and changed into fresh culture medium. […] Transfected cells were incubated for 48 hours, then washed with PBS and incubated for 10 min with gentle agitation at RT in 200 μl of harvest buffer (50 mM MES/Tris pH 7.8, 0.1% Triton X-100, and 1.3 mM dithiothreitol). Luciferase activity was measured using 100 μl of extract in a luminometer.
# The reduction in SERCA2a mRNA and protein expression observed following treatment of myocytes with high glucose prompted us to examine whether these effects were being exerted, at least in part, by interactions with the SERCA2a gene promoter. […] Crude cell lysates were incubated with luciferase substrate and relative light units were measured on a luminometer. […]
compound,measurement,setting,value
"CC(=O)N[C@H]1/C(=N/OC(=O)Nc2ccccc2)O[C@H](CO)[C@@H](O)[C@@H]1O [PUGNAc, O-(2-acetamido-2-deoxy-D-glucopyranosylidene)amino-N-phenyl carbamate]",overall levels of nuclear O-GlcNAcylation,[1],substantially increased
same,time to achieve a 50% decrease in the calcium transient (T1/2),[2],1.31 ± 0.085 s
same,increase in diastolic calcium decay relative to controls,[2],43%
"CN(N=O)C(=O)N[C@@H](C=O)[C@@H](O)[C@H](O)[C@H](O)CO [STZ, streptozocin]",UDP-GalNAc in heart,[3],0.51 ± 0.01 nmol
same,UDP-GlcNAc in heart,[3],1.36 ± 0.03 nmol
same,blood glucose,[3],969 ± 40 mg/dL
N=C(N)NN [aminoguanidine],influence on SERCA2a protein levels,[4],Neither aminoguanidine nor tunicamycin appeared to influence SERCA2a protein levels
same,apparent increase in SERCA2a vs controls,"[4]; 25 mM glucose and 40 μM aminoguanidine, repeated trials",not statistically significant
N[C@H]1C(O)O[C@H](CO)[C@@H](O)[C@@H]1O (some centres unmarked) [glucosamine],overall levels of nuclear O-GlcNAcylation,[1],substantially increased
same,time to achieve a 50% decrease in the calcium transient (T1/2),[2],1.32 ± 0.061 s
same,increase in diastolic calcium decay relative to controls,[2],43%
same,decrease in MEF-2a expression levels compared with normal glucose controls,[5],52%
same,change in SERCA2a protein compared with controls,[4]; 5.5 mM glucose and 8 mM glucosamine,−25±3%
same,SERCA2a protein levels compared with myocytes exposed only to 5.5 mM glucose,[4]; 25 mM glucose and glucosamine,unchanged
same,reduction in SERCA2a promoter activity compared with normal glucose controls,[6],33%
OC[C@@H](O)[C@@H](O)[C@H](O)[C@H](O)CO [mannitol],osmotic effect on SERCA2a protein levels,[4]; 5.5 mM glucose and 20 mM mannitol,nor did we observe any osmotic effect
tunicamycin,influence on SERCA2a protein levels,[4],Neither aminoguanidine nor tunicamycin appeared to influence SERCA2a protein levels
